Measured values from patent US6451853B1, “Small molecules that elicit a polarized Th1 response and for modulation of cellular immunity” (Dovetail Technologies, Inc, priority 1998, dated 2002).
Several values for one entry are separate records, joined by “and”; a condition that tells them apart may be missing. Equal entries are not always repeated. Where two headings read alike, the source gives them in different places.

How the values were obtained:
HL60 targets = experiment: T cell-dependent cytotoxicity toward HL60 targets (MTT reduction assay)
CD-1 mice = details: for Mortality: CD-1 mice
[1] = tested on: TNF-R I on T cells (PBMCs); experiment: TNF receptor I expression on T cells by FACS
[2] = tested on: Monocyte Chemokine Message levels; experiment: RNase protection assay of monocyte chemokine message levels; type: cell-based, human; details: Media + beta-alethine 20 mM; RPA phosphorimaging normalized on L32
Procedure: Monocyte expression of chemokines was also assessed in beta-alethine-treated cells (Table 3). While IP-10 expression was decreased by beta-alethine, the levels of the chemoattractants MIP-1a and IL-8 were increased slightly. Bacterial infections are contained by an inflammatory response. MIP-1a recruits macrophages, T cells and eosinophils to the infection site, and IL-8 recruits neutrophils. Therefore both of these chemokines are important in fighting pathogen-induced infections.

in vivo = details: both, CD-1, mouse, iv
[3] = tested on: Cytokine mRNA from T cells (PBMC); experiment: RNase protection assay of cytokine mRNA in PBMC (T cells), with or without PMA/ionomycin; details: for PMA/ionomycin-induced upregulation of TNF alpha message: PMA/ionomycin stimulation
[4] = tested on: surface TNF alpha on human T cells; experiment: Surface TNF alpha expression on T cells by FACS (gating on CD3+ cells); details: for Change in with BT/without BT: 20 mM BT; for % Positive ± SD (T cells expressing high levels of surface TNF alpha) / MFI ± SD: PMA/ionomycin; for surface TNF alpha, overall MFI: With BT 20 mM; for surface TNF alpha level: unstimulated T cells, BT alone 20 mM, single donor
[5] = tested on: panel of human T-cell lines; experiment: Surface TNF alpha expression on a panel of human T-cell lines; type: cell-based; details: data not shown
[6] = tested on: surface TNF alpha on human monocytes; experiment: Surface TNF alpha expression on monocytes by FACS (CD14+ cells); type: cell-based; set-up: TNF alpha from Monocytes, With BT / change with BT versus without BT: unit not given here; details: for TNF alpha from Monocytes, With BT / change with BT versus without BT: 20 mM BT; for surface TNF alpha expression: all drugs 20 mM
Text: The effect of NAC and BT, alone or in combination, on surface TNF alpha expression by stimulated or unstimulated monocytes (prepared from PBM) was examined. […] Table 6. While only a small proportion of T cells from each donor were responsive to the combination NAC/BT, the effect on surface TNF alpha expression in monocytes was significant.

[7] = tested on: soluble TNF alpha release from human lymphocytes; experiment: Soluble TNF alpha in supernatants by ELISA; details: Media (unstimulated); drugs 20 mM; ELISA standard curve in pg/mL, unit not given
[8] = BT 27 nM, no stimulation, 6 hours
[9] = BT 2.7 uM, no stimulation, 6 hours
[10] = BT 20 mM, no stimulation, 6 hours
[11] = stimulation 1 micromolar Ionomycin and 10 ng/ml PMA, 48 hrs
[12] = stimulation 1 micromolar Ionomycin and 10 ng/ml PMA, individual donors/dates
[13] = Media (no stimulation), individual donors/dates
[14] = Stimulation, individual donors/dates

NCCC(=O)NCCSSCCNC(=O)CCN [BT, beta-alethine]
T cell dependent cytotoxic activity toward HL60 in the presence of neutralizing anti-TNF alpha antibodies (HL60 targets; 20 mM BT, PMA/ionomycin stimulated, data not shown): inhibited | T cell-Mediated Cytotoxicity, optical density at 540 nm ± SD (HL60 targets; PMA/ionomycin-stimulated T cells, 0.85 mM, 10:1 effector:target, 24 hours): .191 ± .003 | gross pathology at necropsy (CD-1 mice; mouse, in vivo): No gross pathology | Mortality (CD-1 mice; single bolus intravenous dose 67 mg/kg): 0/2 | Mortality (CD-1 mice; single bolus intravenous dose 333 mg/kg): 1/3 | Mortality (CD-1 mice; single bolus intravenous dose 667 mg/kg): 2/2 | TNF Receptor I Expression (mean fluorescent channel) ([1]; PMA/ionomycin + 20 mM BT, 20 hours): 329 | TNF Receptor I Expression (mean fluorescent channel) ([1]; PMA/ionomycin + 20 mM BT, 45 hours): 548 | TNF Receptor I Expression (mean fluorescent channel) ([1]; PMA/ionomycin + 20 mM BT, 69 hours): 489 | TNF Receptor I Expression (mean fluorescent channel) ([1]; unstimulated, 20 mM BT, 20 hours): 136 | TNF Receptor I Expression (mean fluorescent channel) ([1]; unstimulated, 20 mM BT, 45 hours): 109 | TNF Receptor I Expression (mean fluorescent channel) ([1]; unstimulated, 20 mM BT, 69 hours): 96 | IL-8 message level [2]: 11,615,894 | IP-10 message level [2]: 55,214 | MIP-1 alpha message level [2]: 909,291 | MIP-1 beta message level [2]: 554,709 | LD50 at 2 weeks (in vivo): > 100 mg/kg | % Change GAPDH mRNA [3, 8]: −10.95% | % Change IFNg mRNA [3, 8]: 21.11% | % Change LTb mRNA [3, 8]: 27.48% | % Change TGFb1 mRNA [3, 8]: 26.69% | % Change TNFa mRNA [3, 8]: 10.04% | % Change TNFb mRNA [3, 8]: 42.88% | % Change GAPDH mRNA [3, 9]: −4.78% | % Change IFNg mRNA [3, 9]: 20.17% | % Change LTb mRNA [3, 9]: 25.70% | % Change TGFb1 mRNA [3, 9]: 42.15% | % Change TNFa mRNA [3, 9]: 24.94% | % Change TNFb mRNA [3, 9]: 220.87% | % Change IFNg mRNA [3, 10]: 109.71% and 94.74% and 139.51% | % Change IL-1Ra mRNA [3, 10]: 30.84% | % Change IL-1a mRNA [3, 10]: 9.07% | % Change IL-1b mRNA [3, 10]: 60.09% | % Change IL-2 mRNA [3, 10]: 95.02% | % Change IL-4 mRNA [3, 10]: 135.82% | % Change IL-5 mRNA [3, 10]: 161.15% | % Change IL-8 mRNA [3, 10]: 10.65% | % Change IL-9 mRNA [3, 10]: 22.86% | % Change IL-13 mRNA [3, 10]: 83.76% | % Change IL-15 mRNA [3, 10]: 4.88% | % Change LTN* mRNA [3, 10]: 58.25% | % Change LTb mRNA [3, 10]: 117.13% | % Change MIP-1 alpha mRNA [3, 10]: 25.98% | % Change MIP-1 beta mRNA [3, 10]: −4.79% | % Change RANTES mRNA [3, 10]: −2.09% | % Change TGFb1 mRNA [3, 10]: 82.08% | % Change TNFa mRNA [3, 10]: 168.85% | % Change TNFb mRNA [3, 10]: 77.91% | ratio of TNF alpha: TGF beta message (densitometry) ([3]; PMA/ionomycin + 20 mM BT (PMA/ionomycin alone 3.61)): 7.12 | PMA/ionomycin-induced upregulation of TNF alpha message ([3]; 2.7 mM BT, 6 hours): maintained | PMA/ionomycin-induced upregulation of TNF alpha message ([3]; 20 mM BT, 6 hours): further enhanced | ratio of TNF alpha: TGF beta message (densitometry) ([3]; media + 20 mM BT (media alone 0.092)): 1.36 | Change in with BT/without BT [4, 11]: 84.527% | Change in with BT/without BT [4, 12]: 45.223% and 66.236% and 49.403% and 71.042% and 4.276% and 68.647% and 152.007% and 27.185% and 104.690% and 325.647% | % Positive ± SD (T cells expressing high levels of surface TNF alpha) ([4]; Dose 2.7 mM, 16 hours): 10.86 ± .92% | MFI ± SD ([4]; Dose 2.7 mM, 16 hours): 94.52 ± 1.83 | % Positive ± SD (T cells expressing high levels of surface TNF alpha) ([4]; Dose 20 mM, 16 hours): 24.25 ± 6.25% | MFI ± SD ([4]; Dose 20 mM, 16 hours): 127.37 ± 12.5 | % Positive ± SD (T cells expressing high levels of surface TNF alpha) ([4]; Dose .0085 mM, 16 hours): 4.96 ± .41% | MFI ± SD ([4]; Dose .0085 mM, 16 hours): 59.84 ± 4.08 | % Positive ± SD (T cells expressing high levels of surface TNF alpha) ([4]; Dose .027 mM, 16 hours): 5.18 ± 1.73% | MFI ± SD ([4]; Dose .027 mM, 16 hours): 63.49 ± .28 | % Positive ± SD (T cells expressing high levels of surface TNF alpha) ([4]; Dose .085 mM, 16 hours): 8.4 ± .5% | MFI ± SD ([4]; Dose .085 mM, 16 hours): 74.18 ± 7.98 | % Positive ± SD (T cells expressing high levels of surface TNF alpha) ([4]; Dose .27 mM, 16 hours): 7.33 ± .38% | MFI ± SD ([4]; Dose .27 mM, 16 hours): 71.17 ± .77 | % Positive ± SD (T cells expressing high levels of surface TNF alpha) ([4]; Dose .85 mM, 16 hours): 9.38 ± 1.57% | MFI ± SD ([4]; Dose .85 mM, 16 hours): 81.93 ± 6.33 | time for which increased surface TNF alpha expression was sustained ([4]; PMA/ionomycin-stimulated cells): over 50 hours | surface TNF alpha expression, Time Course ([4]; Pma/iono, 6 hours, 2.7 mM): 149 | surface TNF alpha expression, Time Course ([4]; Pma/iono, 6 hours, each drug 20 mM): 112 | surface TNF alpha expression, Time Course ([4]; Pma/iono, 16 hours, 2.7 mM): 179 | surface TNF alpha expression, Time Course ([4]; Pma/iono, 16 hours, each drug 20 mM): 220 | surface TNF alpha expression, Time Course ([4]; Pma/iono, 24 hours, 2.7 mM): 208 | surface TNF alpha expression, Time Course ([4]; Pma/iono, 24 hours, each drug 20 mM): 226 | surface TNF alpha expression, Time Course ([4]; Pma/iono, 42 hours, 2.7 mM): 120 | surface TNF alpha expression, Time Course ([4]; Pma/iono, 42 hours, each drug 20 mM): 247 | surface TNF alpha expression, Time Course ([4]; Pma/iono, 68 hours, 2.7 mM): 64 | surface TNF alpha expression, Time Course ([4]; Pma/iono, 68 hours, each drug 20 mM): 174 | surface TNF alpha, overall MFI [4, 11]: 146.81 | surface TNF alpha, overall MFI [4, 12]: 164.48 and 83.65 and 123.87 and 25.93 and 48.53 and 105.59 and 435.04 and 25.17 and 508.43 and 292.59 | surface TNF alpha, overall MFI ([4]; stimulation with 1 ng PMA, individual donors): 133.13 and 25.41 | surface TNF alpha level ([4]; 15 hours post-exposure (control 25)): 75 | surface TNF alpha level ([4]; forty hours (control 25)): 100 | surface TNF alpha expression, Time Course ([4]; unstimulated, 6 hours, 2.7 mM): 22 | surface TNF alpha expression, Time Course ([4]; unstimulated, 6 hours, each drug 20 mM): 32 | surface TNF alpha expression, Time Course ([4]; unstimulated, 16 hours, 2.7 mM): 42 | surface TNF alpha expression, Time Course ([4]; unstimulated, 16 hours, each drug 20 mM): 76 | surface TNF alpha expression, Time Course ([4]; unstimulated, 24 hours, 2.7 mM): 47 | surface TNF alpha expression, Time Course ([4]; unstimulated, 24 hours, each drug 20 mM): 67 | surface TNF alpha expression, Time Course ([4]; unstimulated, 42 hours, 2.7 mM): 79 | surface TNF alpha expression, Time Course ([4]; unstimulated, 42 hours, each drug 20 mM): 101 | surface TNF alpha expression, Time Course ([4]; unstimulated, 68 hours, 2.7 mM): 30 | surface TNF alpha expression, Time Course ([4]; unstimulated, 68 hours, each drug 20 mM): 41 | surface TNF alpha expression [5]: induced upregulation | TNF alpha from Monocytes, With BT ([6]; Media (no stimulation), 48 hrs): 14.22 | change with BT versus without BT ([6]; Media (no stimulation), 48 hrs): 0.07037 | TNF alpha from Monocytes, With BT [6, 13]: 124.26 and 10.53 and 24.06 | change with BT versus without BT [6, 13]: 78.87 and −44.17 and 18.58 | TNF alpha from Monocytes, With BT ([6]; Stimulation, 48 hrs): 34.59 | change with BT versus without BT ([6]; Stimulation, 48 hrs): −6.107 | TNF alpha from Monocytes, With BT [6, 14]: 71.42 and 202.15 and 41.97 and 143.51 and 87.59 | change with BT versus without BT [6, 14]: 11.54 and 249.1 and −52.59 and 126.7 and 127.7 | surface TNF alpha expression ([6]; stimulated monocytes): induced significant surface TNF alpha expression | surface TNF alpha expression ([6]; unstimulated monocytes): not upregulated | Soluble TNF [7]: 29
